Assay results: patent US20060035932A1, “N-aryl piperidine compounds” (Propharmacon, Inc., priority 2004, published 2006)

What follows are compounds tested against T1, binding of recombinant macrophage-tropic strain JR-FL gp120 to immobilized recombinant CD4 (Homo sapiens, UniProt P01730) (assay: gp120/CD4 binding assay (DELFIA competition assay, europium-labeled gp120, immobilized CD4)). Conditions: control substances used in optimizing the binding assay.
T1 construct: human CD4 (comprised of amino acids 1-371); made in house; host or cells: Sf9 insect cells, baculovirus vector pAcGP67
Parameters: species or system HIV (strain JR-FL) gp120; human CD4
Description: Coding sequences for gp120 (macrophage-tropic strain JR-FL) and human CD4 (comprised of amino acids 1-371) were sub-cloned into the commercial baculovirus expression vector pAcGP67 (Pharmingen, San Diego, Calif.). The recombinant vectors were then transfected into Sf9 insect cell monolayers using the Baculogold™ transfection system. Clones were isolated by the method of limited dilution.
For large-scale production, cell culture was scaled up in 8-liter spinner flasks of Sf9 cells adapted to serum-free growth conditions, then infected by baculovirus using an MOI of 5 and the cell supernatant was harvested 72 hours later. The yields of recombinant protein expressed for both proteins were similar; 2-5 μg/ml (micrograms per milliliter). Recombinant CD4 protein was immunopurified using an affinity-column of immobilized Anti-CD4 D1 mAb Leu3a (Dalgleish, A. G., et al., Lancet, 2:1047-1050 1987) and gp120 protein was immunopurified using a resin coupled with Propharmacon monoclonal antibody PPC3G6 produced in-house (mouse IgG2) against Sf9-produced gp120. Protein purity and molecular weight were assessed using reduced and non-reduced SDS PAGE.
The identification of inhibitors was carried out by a competition assay utilizing recombinant macrophage-tropic strain JR-FL gp120, which competes with a prospective inhibitor to bind to immobilized recombinant CD4. The amount of gp12O binding to CD4 was quantitated by DELFIA “Dissociation Enhanced Lanthanide Fluoroimmunoassay” (Paterson, N., et al., Ann. Clin Biochem., 22, 606-611, 1985), having previously labeled the gp120 with a commercial europium chelate (Wallac Oy, Turku, Finland). The final readout uses time-resolved fluorescence to quantitate the amount of dissociated europium metal present. Binding of labeled gp120 was saturable and yielded an IC50 of 3 nM, which approximates literature values (Lasky, L. A., et al., Cell, 50, 975-985). In addition, the binding of gp120 was inhibited by Leu3a with an IC50 of 2 μg/ml. […] The assay is optionally adapted to 384-well format for screening purposes.
For `CC(C)CCC[C@@H](C)[C@H]1CC[C@H]2[C@@H]3CC[C@H]4C[C@@H](CCC=C(c5cc(Cl)c(O)c(C(=O)O)c5)c5cc(Cl)c(O)c(C(=O)O)c5)CC[C@]4(C)[C@H]3CC[C@]12C` [cosalane, reference compound], the “IC50, inhibition of binding of gp120 to immobilized CD4” value was 4.3 µg/mL.

Same assay, conditions: control substances used in optimizing the binding assay; read-out: IC50, inhibition of binding of gp120 to immobilized CD4 (converted)
Work on `O=C(O)C1=CC(=C(c2ccc(O)c(C(=O)O)c2)c2ccc(O)c(C(=O)O)c2)C=CC1=O` [aurintricarboxylic acid, reference compound] yielded an IC50 of 1.18 µM.

Same assay, conditions: gp120/CD4 binding assay; read-out: Activity (IC50 level in the gp120/CD4 binding assay)
`O=C(O)[C@H](Cc1ccc(Cl)cc1)NS(=O)(=O)c1cnc(N2CCC(CCCCCC3CCN(S(=O)(=O)c4cc(Br)c(Cl)s4)CC3)CC2)c(Br)c1` was tested, and the IC50 was 1 to 10 µM. `O=C(O)[C@H](Cc1ccccc1)NS(=O)(=O)c1cnc(N2CCC(CCCCCC3CCN(S(=O)(=O)c4cc(Br)c(Cl)s4)CC3)CC2)c(Br)c1` was tested, and the IC50 was < 1 µM. `O=C(NO)[C@H]1CC[C@H](NS(=O)(=O)c2ccc(N3CCC(CCCC4CCN(S(=O)(=O)c5cc(Br)c(Cl)s5)CC4)CC3)c(Cl)c2)C1` was tested, and the IC50 was > 10 µM. `CSCC[C@H](NS(=O)(=O)c1ccc(N2CCC(CCCC3CCN(S(=O)(=O)c4ccc(C(C)(C)C)cc4)CC3)CC2)c(Cl)c1)C(=O)O` was tested, and the IC50 was 1 to 10 µM. `O=C(NCCCCC(NS(=O)(=O)c1cnc(N2CCC(CCCC3CCN(S(=O)(=O)c4cc(Br)c(Cl)s4)CC3)CC2)c(Br)c1)C(=O)O)OCc1ccccc1Cl` (stereo not shown) was tested, and the IC50 was < 1 µM. `O=C(O)CN(CCc1ccc(F)cc1)S(=O)(=O)c1cnc(N2CCC(CCCC3CCN(S(=O)(=O)c4cc(Br)c(Cl)s4)CC3)CC2)c(Br)c1` was tested, and the IC50 was < 1 µM. With `O=C(O)CC1Cc2ccccc2CN1S(=O)(=O)c1cnc(N2CCC(CCCCC3CCN(S(=O)(=O)c4cc(Br)c(Cl)s4)CC3)CC2)c(Br)c1` (stereo not shown) the IC50 was < 1 µM. For `O=C(O)[C@@H]1CC[C@H](NS(=O)(=O)c2ccc(N3CCC(CCCC4CCN(S(=O)(=O)c5ccc(F)cc5)CC4)CC3)c(Cl)c2)C1`, the IC50 was > 10 µM. With `O=C(O)[C@H](Cc1ccccc1)NS(=O)(=O)c1cnc(N2CCC(CCCCCCCC3CCN(S(=O)(=O)c4cc(Br)c(Cl)s4)CC3)CC2)c(Br)c1` the IC50 was < 1 µM. With `O=C(O)C1(NS(=O)(=O)c2cnc(N3CCC(CCCC4CCN(S(=O)(=O)c5cc(Br)c(Cl)s5)CC4)CC3)c(Br)c2)CCCCC1` the IC50 was < 1 µM. `O=S(=O)(c1cnc(N2CCC(CCCC3CCN(S(=O)(=O)c4c(Cl)ccc5nonc45)CC3)CC2)c(Br)c1)N1CCCNCC1` was tested, and the IC50 was > 10 µM. Work on `O=C(O)[C@H](Cc1ccccc1)NS(=O)(=O)c1ccc(N2CCC(CCCC3CCN(S(=O)(=O)c4cc(Br)c(Cl)s4)CC3)CC2)c(Cl)c1` yielded an IC50 of 1 to 10 µM. In the case of `O=C(O)C[C@@H]1CCCN1S(=O)(=O)c1cnc(N2CCC(CCCC3CCN(S(=O)(=O)c4cc(Br)c(Cl)s4)CC3)CC2)c(Br)c1`, the IC50 is reported as 1 to 10 µM. Work on `O=C(O)[C@H](Cc1ccccc1)NS(=O)(=O)c1cnc(N2CCC(CCCCC3CCN(S(=O)(=O)c4cc(Br)c(Cl)s4)CC3)CC2)c(C(F)(F)F)c1` yielded an IC50 of 1 to 10 µM.
